# Active and inactive are the calls of the source. No cut-off for these calls is given here.
# Legend:
# A549 [1] = test: Induction of apoptosis in human A549 cells assessed as live cells at 20 uM after 24 hrs by Annexn V-FITC/propidium iodide staining based flow cytometry (reference value: 83%); format: functional
# A549 [2] = test: Induction of apoptosis in human A549 cells assessed as increase in cleaved PARP expression at 20 uM after 12 hrs by immunoblot analysis; format: functional, cell-based
# A549 [3] = test: Growth inhibition of human A549 cells assessed as cell viability at 5 uM after 24 hrs by CCK8 assay relative to control; format: functional; conditions: A549, 24 h, read-out: Activity
# A549 [4] = test: Induction of apoptosis in human A549 cells assessed as increase in cleaved caspase-7 expression at 20 uM after 18 hrs by Alexa Fluor-488/Hoechst 33258 staining based fluorescence microscopic method; format: functional, cell-based
# [5] = molecular target: T1, Eukaryotic translation initiation factor 2-alpha kinase 3 (Homo sapiens) (UniProt Q9NZJ5); test: Induction of ER stress-activated unfolded protein response pathway in human A549 cells assessed as increase in PERK phosphorylation at Thr981 residue at 20 uM up to 6 hrs by immunoblot analysis; format: cell-based
# T1 sequence (whole entry): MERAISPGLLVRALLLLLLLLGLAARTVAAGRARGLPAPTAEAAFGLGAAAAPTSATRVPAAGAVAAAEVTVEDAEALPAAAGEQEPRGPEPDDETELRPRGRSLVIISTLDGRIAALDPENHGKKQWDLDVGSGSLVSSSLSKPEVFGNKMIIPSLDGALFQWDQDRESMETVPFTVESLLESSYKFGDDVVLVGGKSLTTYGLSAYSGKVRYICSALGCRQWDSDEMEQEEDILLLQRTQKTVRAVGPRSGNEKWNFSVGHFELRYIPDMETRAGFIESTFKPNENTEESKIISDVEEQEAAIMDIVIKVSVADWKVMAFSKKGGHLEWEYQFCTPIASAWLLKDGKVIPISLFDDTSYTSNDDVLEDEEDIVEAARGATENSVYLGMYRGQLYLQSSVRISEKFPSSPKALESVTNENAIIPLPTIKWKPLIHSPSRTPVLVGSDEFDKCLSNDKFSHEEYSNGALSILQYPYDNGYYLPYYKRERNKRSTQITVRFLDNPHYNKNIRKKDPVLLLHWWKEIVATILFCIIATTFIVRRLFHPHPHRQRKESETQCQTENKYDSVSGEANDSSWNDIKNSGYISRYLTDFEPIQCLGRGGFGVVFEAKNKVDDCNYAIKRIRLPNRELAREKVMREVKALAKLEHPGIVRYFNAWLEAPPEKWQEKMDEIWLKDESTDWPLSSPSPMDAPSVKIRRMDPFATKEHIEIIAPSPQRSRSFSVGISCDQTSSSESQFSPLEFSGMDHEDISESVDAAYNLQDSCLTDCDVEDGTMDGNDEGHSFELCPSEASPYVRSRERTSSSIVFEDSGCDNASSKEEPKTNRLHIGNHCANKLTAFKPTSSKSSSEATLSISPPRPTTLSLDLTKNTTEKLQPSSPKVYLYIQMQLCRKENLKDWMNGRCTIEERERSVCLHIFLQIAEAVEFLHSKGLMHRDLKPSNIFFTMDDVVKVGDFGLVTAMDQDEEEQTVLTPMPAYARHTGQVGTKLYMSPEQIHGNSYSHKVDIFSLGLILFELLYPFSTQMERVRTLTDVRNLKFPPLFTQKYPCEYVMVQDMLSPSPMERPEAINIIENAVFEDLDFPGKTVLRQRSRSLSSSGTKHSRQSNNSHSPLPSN
# A549 [6] = test: Induction of ER stress-activated unfolded protein response pathway in human A549 cells assessed as increase in IRE1alpha-mediated splicing of XBP1 mRNA by measuring increase in 540-base pair fragments at 20 uM after 24 hrs by RT-PCR analysis; format: functional, cell-based
# A549 [7] = test: Induction of ER stress-activated unfolded protein response pathway in human A549 cells assessed as increase in IRE1alpha-mediated splicing of XBP1 mRNA by measuring increase in 540-base pair fragments at 20 uM after 12 hrs by RT-PCR analysis; format: functional, cell-based
# A549 [8] = test: Induction of ER stress-activated unfolded protein response pathway-mediated apoptosis in human A549 cells assessed as increase in cleaved caspase-7 expression at 20 uM pre-treated with stress inhibitor 4-PBA before compound addition by immunoblot analysis; format: functional, cell-based
# A549 [9] = test: Induction of ER stress-activated unfolded protein response pathway in human A549 cells assessed as increase in IRE1alpha-mediated splicing of XBP1 by measuring increase in XBP1 (56 kDa) level at 20 uM after 6 to 12 hrs by immunoblot analysis; format: functional, cell-based
# NCI-H460 = test: Anticlonogenic activity against human NCI-H460 cells at 20 uM after 7 days by crystal violet staining based assay; format: functional, cell-based
# A549 [10] = test: Induction of ER stress-activated unfolded protein response pathway in human A549 cells assessed as accumulation of GRP78 protein level at 20 uM after 12 hrs by immunoblot analysis; format: functional, cell-based
# A549 [11] = test: Cell cycle arrest in human A549 cells assessed as accumulation at sub-G1 phase at 20 uM after 24 hrs by propidium iodide staining based flow cytometry (reference value: 2 to 2.3%); format: functional
# A549 [12] = test: Induction of ER stress-activated unfolded protein response pathway in human A549 cells assessed as increase in CHOP expression at 20 uM after 6 to 12 hrs by immunoblot analysis; format: functional, cell-based
# A549 [13] = test: Induction of ER stress-activated unfolded protein response pathway in human A549 cells assessed as increase in IRE1alpha-mediated splicing of XBP1 mRNA by measuring increase in 279-/261-base pair fragments at 20 uM within 3 hrs by RT-PCR analysis; format: functional, cell-based
# A549 [14] = test: Induction of ER stress-activated unfolded protein response pathway-mediated apoptosis in human A549 cells assessed as increase in cleaved PARP expression at 20 uM pre-treated with stress inhibitor 4-PBA before compound addition by immunoblot analysis; format: functional, cell-based
# A549 [15] = test: Induction of apoptosis in human A549 cells assessed as early apoptotic cells at 20 uM after 24 hrs by Annexn V-FITC/propidium iodide staining based flow cytometry (reference value: 5%); format: functional
# MCF-12A = test: Induction of apoptosis in human MCF12A cells assessed as increase in cleaved PARP expression at 20 uM after 12 hrs by immunoblot analysis; format: cell-based
# MDA-MB-231 = test: Induction of apoptosis in human MDA-MB-231 cells assessed as increase in cleaved PARP expression at 20 uM after 12 hrs by immunoblot analysis; format: functional, cell-based
# A549 [16] = test: Induction of apoptosis in human A549 cells assessed as increase in cleaved caspase-7 expression at 20 uM after 12 hrs by immunoblot analysis; format: functional, cell-based
# A549 [17] = test: Growth inhibition of human A549 cells assessed as cell viability at 10 uM after 24 hrs by CCK8 assay relative to control; format: functional; conditions: A549, 24 h, read-out: Activity
# A549 [18] = test: Induction of ER stress-activated unfolded protein response pathway in human A549 cells assessed as increase in ATF4 expression at 20 uM after 6 hrs by immunoblot analysis; format: functional, cell-based
# A549 [19] = test: Induction of ER stress-activated unfolded protein response pathway in human A549 cells assessed as increase in IRE1alpha-mediated splicing of XBP1 mRNA by measuring increase in 540-base pair fragments at 20 uM within 3 hrs by RT-PCR analysis; format: functional, cell-based
# A549 [20] = test: Induction of apoptosis in human A549 cells assessed as nuclear condensation and fragmentation at 20 uM after 18 hrs by Alexa Fluor-488/Hoechst 33258 staining based fluorescence microscopic method; format: functional, cell-based
# A549 [21] = test: Cell cycle arrest in human A549 cells assessed as accumulation at G2/M phase at 20 uM after 24 hrs by propidium iodide staining based flow cytometry (reference value: 14.8 to 15%); format: functional
# A549 [22] = test: Induction of ER stress-activated unfolded protein response pathway in human A549 cells harboring pFA-CHOP-GAL4/p-GAL4-DBD-Luc assessed as increase in CHOP trans-acting activity after 12 hrs by luciferase reporter gene assay; format: functional, cell-based
# A549 [23] = test: Induction of apoptosis in human A549 cells assessed as increase in cleaved caspase-9 expression at 20 uM after 12 hrs by immunoblot analysis; format: functional, cell-based
# A549 [24] = test: Cell cycle arrest in human A549 cells assessed as accumulation at G1 phase at 20 uM after 24 hrs by propidium iodide staining based flow cytometry (reference value: 57%); format: functional
# A549 [25] = test: Cell cycle arrest in human A549 cells assessed as accumulation at S phase at 20 uM after 24 hrs by propidium iodide staining based flow cytometry (reference value: 25.6 to 26%); format: functional
# A549 [26] = test: Induction of apoptosis in human A549 cells assessed as necrotic cells at 20 uM after 24 hrs by Annexn V-FITC/propidium iodide staining based flow cytometry (reference value: 10%); format: functional
# A549 [27] = test: Induction of apoptosis in human A549 cells assessed as increase in cleaved caspase-7 expression at 20 uM pre-treated with pan-caspase inhibitor zVAD-FMK fopr 30 mins before compound incubation for 12 hrs by immunoblot analysis; format: functional, cell-based
# A549 [28] = test: Induction of ER stress-activated unfolded protein response pathway in human A549 cells assessed as accumulation of IRE1alpha protein level at 20 uM after 12 hrs by immunoblot analysis; format: functional, cell-based
# A549 [29] = test: Anticlonogenic activity against human A549 cells at 20 uM after 7 days by crystal violet staining based assay; format: functional, cell-based
# A549 [30] = test: Induction of ER stress-activated unfolded protein response pathway in human A549 cells assessed as increase in Bim expression at 20 uM after 12 hrs by immunoblot analysis; format: functional, cell-based
# A549 [31] = test: Induction of apoptosis in human A549 cells assessed as late apoptotic cells at 20 uM after 24 hrs by Annexn V-FITC/propidium iodide staining based flow cytometry (reference value: 3%); format: functional
# NCI-H1299 = test: Anticlonogenic activity against human NCI-H1299 cells at 20 uM after 7 days by crystal violet staining based assay; format: functional, cell-based
# A549 [32] = test: Induction of apoptosis in human A549 cells assessed as disruption of microtubule organization at 20 uM after 18 hrs by Alexa Fluor-488/Hoechst 33258 staining based fluorescence microscopic method; format: functional, cell-based
# A549 [33] = test: Growth inhibition of human A549 cells assessed as cell viability at 20 uM after 24 hrs by CCK8 assay relative to control; format: functional; conditions: A549, 24 h, read-out: Activity
# A549 [34] = test: Induction of apoptosis in human A549 cells assessed as increase in cleaved PARP expression at 20 uM pre-treated with pan-caspase inhibitor zVAD-FMK fopr 30 mins before compound incubation for 12 hrs by immunoblot analysis; format: functional, cell-based
smiles,measurement,setting,value
COc1cc(/C=C/C(=O)c2cc(OC)ccc2O)cc(OC)c1,Activity,A549 [1],56%
same,Activity,A549 [2],Active
same,viability at 5 µM,A549 [3],90.1%
same,Activity,A549 [4],Active
same,Activity,[5],Active
same,Activity,A549 [6],inactive
same,Activity,A549 [7],Active
same,Activity,A549 [8],Active
same,Activity,A549 [9],Active
same,Activity,NCI-H460,Active
same,Activity,A549 [10],Active
same,Activity,A549 [11],29.6 - 30%
same,Activity,A549 [12],Active
same,Activity,A549 [13],Active
same,Activity,A549 [14],Active
same,Activity,A549 [15],18%
same,Activity,MCF-12A,Non-Toxic
same,Activity,MDA-MB-231,Active
same,Activity,A549 [16],Active
same,viability at 10 µM,A549 [17],83.9%
same,Activity,A549 [18],Active
same,Activity,A549 [19],Active
same,Activity,A549 [20],Active
same,Activity,A549 [21],14 - 14.1%
same,Activity,A549 [22],Dose-dependent effect
same,Activity,A549 [23],Active
same,Activity,A549 [24],29.8 - 30%
same,Activity,A549 [25],26 - 26.5%
same,Activity,A549 [26],9%
same,Activity,A549 [27],inactive
same,Activity,A549 [28],Active
same,Activity,A549 [29],Active
same,Activity,A549 [30],Active
same,Activity,A549 [31],16%
same,Activity,NCI-H1299,Active
same,Activity,A549 [32],Active
same,viability at 20 µM,A549 [33],50.8%
same,Activity,A549 [34],inactive
